Values quoted from earlier work, collected in patent publication US20070065449A1 (priority 2005, published 2007).
Structures can show the parent of a compound that is named as a salt. Where two headings read alike, the source gives them in different places.

Key:
[1] = not given; remark: listed apart in the source
soft tissue sarcoma [2] = conditions: 29 evaluable patients, previously treated with chemotherapy
soft tissue sarcoma [3] = conditions: 27 evaluable patients, previously treated with chemotherapy
[4] = in vivo
soft tissue sarcomas [5] = conditions: previously untreated patients; 95% CI 0.1, 29
tubulin = conditions: read-out: concentration required to provide 50% inhibition of microtubule disassembly (IC50)
[6] = system: leiomyosarcoma of the uterus; conditions: 48 evaluable patients
[7] = system: advanced soft tissue sarcomas; conditions: previously untreated advanced soft tissue sarcomas
[8] = system: angiosarcoma of the scalp or face; conditions: four partial and four clinical complete responses
[9] = system: advanced soft tissue sarcomas
soft tissue sarcomas [10] = system: soft tissue sarcomas
[11] = system: pretreated adult soft tissue sarcoma
[12] = not given; remark: listed apart in the source

Nc1ccn([C@@H]2O[C@H](CO)[C@@H](O)C2(F)F)c(=O)n1 [Gemcitabine HCl, 2′-deoxy-2′,2′-difluorocytidine monohydrochloride ((beta)-isomer)]
solubility in ethanol and polar organic solvents: practically insoluble | solubility in methanol: slightly soluble | solubility in water: soluble

CC(=O)O[C@@]12CO[C@@H]1C[C@H](O)[C@@]1(C)C(=O)[C@H](O)C3=C(C)[C@@H](OC(=O)[C@H](O)[C@@H](NC(=O)OC(C)(C)C)c4ccccc4)C[C@@](O)([C@@H](OC(=O)c4ccccc4)[C@H]21)C3(C)C [docetaxel]
storage time of initial diluted solution ([1]; 10 mg docetaxel/ml, refrigerator or room temperature): ≤ 8 h | stability of infusion solution ([1]; stored between 2 and 25° C.): 4 h | partial responses (soft tissue sarcoma [2]): 17% | partial responses (soft tissue sarcoma [3]): 15% | major toxic effect which limits dose [4]: neutropenia | response rate (soft tissue sarcomas [5]): 5.9% | IC50 (tubulin): 200 nM

CC(=O)O[C@H]1C(=O)[C@@]2(C)[C@H]([C@H](OC(=O)c3ccccc3)[C@]3(O)C[C@H](OC(=O)[C@H](O)[C@@H](NC(=O)c4ccccc4)c4ccccc4)C(C)=C1C3(C)C)[C@]1(OC(C)=O)CO[C@@H]1C[C@@H]2O [paclitaxel]
complete or partial response [6]: 8.4% | stable disease [6]: 22.9% | response rate [7]: 12.5% | IC50 (tubulin): 400 nM | patients responding [8]: eight of nine

Nc1ccn([C@@H]2O[C@H](CO)[C@@H](O)C2(F)F)c(=O)n1 [gemcitabine]
duration of a partial response in a patient ([9]; in vivo): 8 months | rate of remissions ([9]; previously untreated patients, 90% CI 0, 18): 4% | objective responses in patients with GIST (soft tissue sarcomas [10]; 17 patients with GIST): no objective responses | median duration of remission (soft tissue sarcomas [10]; in vivo): 3.5 months | remission rate (soft tissue sarcomas [10]; patients with soft tissue sarcomas): 18% | disease stabilization ([11]; 15 assessable patients): 47% | progression-free survival rate at 6 months ([11]; calculated, 95% CI 0, 30.5): 13.3% | progression-free survival rate at 3 months ([11]; calculated, 95% CI 21.4, 71.9): 46.7% | remission rate ([11]; gemcitabine 1.0 g/m^2 days 1, 8, 15 every 4 weeks, 15 assessable patients): 6% | median progression-free survival ([11]; range 1-18+): 3 months | hemolytic uremic syndrome (HUS) ([12]; 6 of 2429 patients): 0.25% | edema ([12]; human, in vivo): 13% | flu syndrome ([12]; human, in vivo): 19% | generalized edema ([12]; human, in vivo): < 1% | overall incidence of fever ([12]; human, in vivo): 41% | peripheral edema ([12]; human, in vivo): 20% | principal dose-limiting toxicity ([12]; human, in vivo): Myelosuppression | rash ([12]; human, in vivo): 30% | nausea and vomiting ([12]; usually mild to moderate severity): 69%
